Measurements taken from patent US9896474B2, “(3A,9B,10A,13A,14B,17A,20S,22E)-ergosta-5,7,22-trien-3-ol and methods of preparing and using the same” (priority 2014, dated 2018).
Converted amounts (≈) assume the structure as drawn. “And” between values parts separate entries of the source, which are not always exact repeats. Equal values may be shown once.

What was measured:
[1] = tested on: human hepatoma cells Hep-g2; experiment: MTT assay on human hepatoma cells Hep-g2; type: cell-based; conditions: HepG2, 48 hrs, OD 490 nm, read-out: 1050 value (cell viability curve)
Protocol: a. 250 mg of 3-(4,5-dimethylthiazol-2-yl)-2,5-diphenyltetrazolium bromide (MTT) was dissolved by 50 mL of phosphate buffered saline (PBS) having a concentration of 0.01 mol/L and PH=7.45 to yield a MTT solution having a final concentration of 5 mg/mL. The MTT solution was dispensed and protected against light at the temperature of −20° C. after filtration and sterilization.
b. A suspension of single cell line was prepared and inoculated into 96-well plate (cells were diluted to a concentration of 4×10^4/mL by the F-12K basic culture medium, 100 μL diluted cells were added to each well and cultivated at 37° C., 5% CO2 for 20 hrs, each group was provided with 4 parallel samples).
c. The culture medium was removed; and new culture mediums were prepared according to serial concentration of the antitumor drug (C310-6), each well was added with 100 μL of the new culture medium and cells were cultivated for 48 hrs.
d. 20 μL of MTT solution having the concentration of 5 mg/mL was added to each well for incubating the cells for 4 hrs.
e. […]
f. OD values were measured by a microplate reader, λ=490 nm
g. A cell viability curve was charted, 1050 value was calculated to be 14.152 μg/mL, which means that the compound has excellent human hepatoma cells Hep-g2 activity resistance.

[2] = tested on: human lung cancer cells A549; experiment: MTT assay on human lung cancer cells A549; type: cell-based; conditions: A549 section, 48 hrs, OD 490 nm, read-out: 1050 value (cell viability curve)
H22 liver cancer model = experiment: Antitumor experiment against H22 tumor bearing mice; type: in vivo; conditions: 10 days; for Net weight variation (g) / Tumor weight: x ± s
From the text: Antitumor Experiment of C310-6 Against H22 Tumor Bearing Mice
H22 tumor bearing mice were adopted to observe the effect of the anti-liver cancer of five classes of mixtures.
H22 tumor bearing mouse inoculated with the tumor for 8-13 days and in good condition was killed by dislocation. Body surface of the mouse was disinfected by alcohol. The tumors were separated from the mouse and placed in sterile petri dish containing normal saline in a sterile environment (super clean bench). The tumors were cut into small piece and transferred to a tissue homogenizer, the normal saline was added with a volume ratio of the tumor piece to the normal saline being 1:3, a resulting homogenate was put into a 50 mL sterile centrifuge tube. 0.2 mL of the homogenate was inoculated to right axilla of each C57BL/6 mouse by 1 mL syringe. The tumor cell suspension was prepared in the sterile environment (the super clean bench), and the serial operations from separation of the abdominal dropsy of the tumor to the tumor inoculation were accomplished in 60 min
(§1) Oral agent of C310-6: a certain weight of C310-6 sample was placed in a mortar, and Tween-80 having a volume of 2% of a certain volume of a solvent was added and fully ground. Thereafter, the normal saline was added and fully stirred to form a solution. Solutions having a concentration of the C310-6 sample of 24 mg/mL, 8 mg/mL, and 2.7 mg/mL were prepared.
(§2) Oral agent of CTX: CTX pill was removed from a film and a certain amount of the pill was placed in a mortar. A certain volume of normal saline was added, fully ground, and mixed to prepare a solution having a concentration of CTX to be 3.4 mg/mL.
(§3) 60 experimental mice were divided into 6 groups with each group having 10 mice, a half of the mice being female and another half of the mice being male. The groups are specifically as follows: 1) group administered with a low dose of C310-6 (27 mg/kg), 2) group administered with middle dose of C310-6 (80 mg/kg), 3) group administered with high dose of C310-6 (240 mg/kg), 4) group administered with CTX, 5) model group, and 6) blank control group. The above groups, except the model group and the blank control group, are administered with 0.3 mL of the drugs once a day after the injection of the tumor suspension, and the administration was lasted for 10 days. The model group and the blank control group are administered orally with equal volume of aqua solutions containing 2 v. % of Tween-80 for 10 days.
(§4) The weight and food intake of the mice were weighed and recorded every day, and a net weight of each mouse after tumor removal was calculated at the last time.
(§5) The separated tumor tissue was weighed, and the inhibition rate on the tumor growth was calculated according to the following equation: […]
Data of mice in each group were expressed by and were processed by SPSS software, each group was examined by one-way ANOVA.

Lewis lung cancer model = experiment: Anti-Lewis tumor experiment (Lewis lung cancer bearing mouse); type: in vivo; conditions: Lewis mice, 10 days; for Net weight variation (g) / Tumor weight: x ± s
From the text: The purpose of the experiment was adopting the Lewis tumor bearing mouse model to observe the antitumor effect of C310-6.
Tumor bearing mouse inoculated with the tumor for 8-13 days and in good condition was killed by dislocation. Body surface of the mouse was disinfected by alcohol. The tumors were separated from the mouse and placed in sterile petri dish containing normal saline in a sterile environment (super clean bench). The tumors were cut into small piece and transferred to a tissue homogenizer, the normal saline was added with a volume ratio of the tumor piece to the normal saline being 1:3, a resulting homogenate was put into a 50 mL sterile centrifuge tube. 0.2 mL of the homogenate was inoculated to right axilla of each KM mouse by 1 mL syringe. The tumor cell suspension was prepared in the sterile environment (the super clean bench), and the serial operations from the tumor separation to the tumor inoculation were accomplished in 60 min
as §1, §2
as §3, with “0.2” for “0.3”
as §4, §5
Data of mice in each group were expressed by corresponding data and were processed by SPSS software, each group was examined by one-way ANOVA.

[3] = tested on: human hepatoma cells Hep-g2; experiment: iCELLigence real-time cell-analyzer (RTCA) growth monitoring, Hep-g2; type: cell-based; conditions: 1.6-100 μg/mL, 48 hrs, FIG. 6
Protocol: 1. Eight-well plate (E-Plate L8) supplied by ACEA Bio (Hangzhou) Co. Ltd. was combined with an iCELLigence real-time cell-analyzer (RTCA). 150 μL of a complete F-12K medium was added to each well and the eight-well plate was placed in an incubator at a temperature of 37° C. and an atmosphere of 5% CO2, and the background data were regulated to 40-130. The compound C310-6 was fully dissolved by dimethyl sulfoxide to concentrations of 100 mg/mL, 50 mg/mL, 25 mg/mL, 12.5 mg/mL, 6.3 mg/mL, 3.1 mg/mL, and 1.6 mg/mL, and then diluted to by the complete F-12K medium obtain working solutions having concentrations of 10 mg/mL, 5 mg/mL, 2.5 mg/mL, 1.25 mg/mL, 0.63 mg/mL, 0.31 mg/mL, and 0.16 mg/mL. Well cultivated human hepatoma cells Hep-g2 were digested by trypsin and diluted into live cell suspensions with a concentration of 4×10^4/mL. Thereafter, 345 μL of the live cell suspension of C310-6 was inoculated to each well of an eight-well plate, and then 5 μL of the working solution was added to each well to enable final concentrations of the C310-6 compound to be 100 μg/mL, 50 μg/mL, 25 μg/mL, 12.5 μg/mL, 6.3 μg/mL, 3.1 μg/mL, and 1.6 μg/mL. An eighth hole was added with the complete F-12K medium containing 1 wt. % of dimethyl sulfoxide as a blank control group, and was displaced into the incubator at 37° C. and 5% CO2 for 48 hrs.

[4] = tested on: human lung cancer cells A549; experiment: iCELLigence real-time cell-analyzer (RTCA) growth monitoring, A549; type: cell-based; conditions: 1.6-100 μg/mL, 48 hrs, FIG. 7

## CC(C)[C@@H](C)/C=C/[C@H](C)[C@@H]1CC[C@@H]2C3=CC=C4C[C@H](O)CC[C@@]4(C)[C@@H]3CC[C@]21C [C310-6, (3α,9β,10α,13α,14β,17α,20S,22E)-ergosta-5,7,22-trien-3-ol]
[1]
  IC50: 14.2 µg/mL (≈ 35.7 µM)
[2]
  IC50: 14.2 µg/mL (≈ 35.7 µM)
H22 liver cancer model; 27 mg/kg oral once a day
  Liver transfer rate (%): 0%
  Survival rate (%): 100%
  Tumor inhibition rate (%): 23.4%
  Net weight variation (g): 6.92 ± 2.65∘∘ g
  Tumor weight: 0.42 ± 0.60 g
H22 liver cancer model; 80 mg/kg oral once a day
  Liver transfer rate (%): 0%
  Survival rate (%): 100%
  Net weight variation (g): 7.78 ± 3.72∘∘ g
  Tumor weight: 0.32 ± 0.43 g
H22 liver cancer model; 80 mg/kg oral once a day, 80 mg/kg
  Tumor inhibition rate (%): > 40% and 41.1%
H22 liver cancer model; 240 mg/kg oral once a day
  Liver transfer rate (%): 0%
  Survival rate (%): 100%
  Tumor weight: 0.19 ± 0.18 g
H22 liver cancer model; 240 mg/kg oral once a day, 240 mg/kg
  Tumor inhibition rate (%): > 40% and 64.4%
H22 liver cancer model; 240 mg/kg oral once a day, weight after tumor removal vs original
  Net weight variation (g): 5.70 ± 4.05*※∘∘ g
Lewis lung cancer model; 27 mg/kg oral once a day
  Lung cancer transmission rate (%): 40%
  Survival rate (%): 100%
  Tumor inhibition rate (%): 15.76%
  Net weight variation (g): −0.36 ± 1.33**※※ g
  Tumor weight: 1.42 ± 0.94 g
Lewis lung cancer model; 80 mg/kg oral once a day
  Lung cancer transmission rate (%): 50%
  Survival rate (%): 100%
  Tumor inhibition rate (%): 28.39%
  Net weight variation (g): −0.95 ± 1.30**※※ g
  Tumor weight: 1.21 ± 0.26 g
Lewis lung cancer model; 240 mg/kg oral once a day
  Lung cancer transmission rate (%): 30%
  Survival rate (%): 100%
  Tumor inhibition rate (%): 44.59%
  Net weight variation (g): −0.61 ± 1.36**※※ g
  Tumor weight: 0.93 ± 0.45 g
[3]
  growth of human hepatoma cells Hep-g2 (real-time data): inhibited
[4]
  growth of human lung cancer cells A549 (real-time data): inhibited

## O=P1(N(CCCl)CCCl)NCCCO1 (centres unmarked) [CTX, cyclophosphamide, reference compound]
H22 liver cancer model; 20 mg/kg oral once a day
  Liver transfer rate (%): 0%
  Survival rate (%): 100%
  Tumor inhibition rate (%): 52.9%
  Net weight variation (g): 1.73 ± 2.73**※※ g
  Tumor weight: 0.25 ± 0.21 g
Lewis lung cancer model; 20 mg/kg oral once a day
  Lung cancer transmission rate (%): 20%
  Survival rate (%): 100%
  Tumor inhibition rate (%): 46.29%
  Net weight variation (g): −0.94 ± 1.03**※※ g
  Tumor weight: 0.90 ± 0.39 g
